Test results taken from patent US5212187A, “Pyridyl alkylamine compounds which are useful against histamine H1 and H2 receptors” (Zyma SA, priority 1991, dated 1993).

Columns and labels:
histamine H2 -receptors = molecular target: T1, histamine H2 -receptors (Cavia porcellus, UniProt P47747); test: in vitro histamine H2-antagonism on isolated spontaneously beating guinea pig right atrium; conditions: cumulative concentration/action curves (van Rossum), read-out: H2 -antagonism atrium -log KB (converted)
T1 construct: isolated spontaneously beating guinea pig right atrium (H2); from tissue; host or cells: isolated spontaneously beating guinea pig right atrium
T1 sequence (P47747 whole entry): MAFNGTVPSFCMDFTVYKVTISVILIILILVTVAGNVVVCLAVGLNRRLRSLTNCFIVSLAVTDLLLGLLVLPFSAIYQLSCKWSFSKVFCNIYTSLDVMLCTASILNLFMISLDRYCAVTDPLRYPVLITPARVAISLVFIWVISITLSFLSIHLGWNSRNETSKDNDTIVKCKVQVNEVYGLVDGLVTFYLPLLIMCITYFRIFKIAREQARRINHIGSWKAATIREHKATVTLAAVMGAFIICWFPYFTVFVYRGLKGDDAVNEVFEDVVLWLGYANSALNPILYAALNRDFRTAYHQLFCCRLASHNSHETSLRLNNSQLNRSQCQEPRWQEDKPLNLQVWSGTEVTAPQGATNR
Source text: (§1) The compounds of formula I according to the invention are distinguished by a novel overall pharmacological activity that has not been described hitherto. […] Suitable for differentiating the two types of action are, for example, in vitro tests on isolated spontaneously beating guinea pig right atrium (H2) and on isolated guinea pig ileum (H1) (Black, J. W.; Duncan, W. A. M.; Durant, G. J., Ganellin, C. R.; Parsons, M. E. (1972), "Definition and Antagonism of Histamine H2 -receptors", Nature 236, 385-390). The concentration/action curves for determining the pharmacological parameters (-log KB) are recorded using a cumulative technique according to van Rossum, J. M. (1963), "Cumulative Dose-Response Curves. II. Technique for the Making of Dose-Response Curves in Isolated Organs and the Evaluation of Drug Parameters", Arch. Int. Pharmacodyn. Ther. 143, 299-307.
(§2) (determined from isolated guinea pig ileum and atrium, […]

histamine H1 -receptors = molecular target: T2, histamine H1 -receptors (Cavia porcellus, UniProt P31389); test: in vitro histamine H1-antagonism on isolated guinea pig ileum; conditions: cumulative concentration/action curves (van Rossum), read-out: H1 -antagonism ileum -log KB (converted)
T2 construct: isolated guinea pig ileum (H1); from tissue; host or cells: isolated guinea pig ileum
T2 sequence (P31389 whole entry): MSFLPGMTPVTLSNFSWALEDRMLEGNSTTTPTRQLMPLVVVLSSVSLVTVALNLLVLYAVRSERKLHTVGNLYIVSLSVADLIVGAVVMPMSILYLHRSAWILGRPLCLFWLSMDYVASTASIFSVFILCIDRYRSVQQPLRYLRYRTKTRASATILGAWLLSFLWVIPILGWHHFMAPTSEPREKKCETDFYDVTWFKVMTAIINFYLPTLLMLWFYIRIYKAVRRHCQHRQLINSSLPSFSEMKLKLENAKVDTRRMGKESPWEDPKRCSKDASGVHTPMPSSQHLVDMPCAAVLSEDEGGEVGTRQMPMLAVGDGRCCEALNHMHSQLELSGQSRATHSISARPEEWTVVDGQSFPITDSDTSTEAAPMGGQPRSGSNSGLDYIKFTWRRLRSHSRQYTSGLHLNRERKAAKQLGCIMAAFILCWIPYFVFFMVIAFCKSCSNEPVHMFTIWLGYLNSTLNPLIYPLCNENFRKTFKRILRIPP
Source text: as §1, §2

Row | SMILES | Kb (histamine H2 -receptors) [nM] | Kb (histamine H1 -receptors) [nM]
1 | CN(CCNC(=NCCCCOc1cccc(CN2CCCCC2)c1)NC#N)CCC(c1ccc(Cl)cc1)c1ccccn1 (stereo not shown) [Example 1, N-[2-[N-[3-(4-chlorophenyl)-3-(2-pyridyl)propyl]-N-methylamino]ethyl]-N'-cyano-N"-[4-[3-(piperidinomethyl)phenoxy]butyl]guanidine] | 2290 | 63.1
2 | CN(CCCCNC(=NCCCOc1cccc(CN2CCCCC2)c1)NC#N)CCC(c1ccccc1)c1ccccn1 (stereo not shown) [Example 9, N-cyano-N'-[4-[N-[3-phenyl-3-(2-pyridyl)propyl]-N-methylamino]butyl]-N"-[3-[3-(piperidinomethyl)phenoxy]propyl]guanidine] | 501 | 11.7
3 | CN(CCCNC(=NCCCOc1cccc(CN2CCCCC2)c1)NC#N)CCC(c1ccccc1)c1ccccn1 (stereo not shown) [Example 10, N-cyano-N'-[3-[N-[3-phenyl-3-(2-pyridyl)propyl]-N-methylamino]propyl]-N"-[3-[3-(piperidinomethyl)phenoxy]propyl]guanidine] | 1480 | 6.46
4 | CN(CCCCNC(=NCCSCc1csc(NC(=N)N)n1)NC#N)CCC(c1ccc(Cl)cc1)c1ccccn1 (stereo not shown) [Example 17, N-[4-[N-[3-(4-chlorophenyl)-3-(2-pyridyl)propyl]-N-methylamino]butyl]-N'-cyano-N"-[2-[[(2-guanidino-4-thiazolyl)methyl]thio]ethyl]guanidine] | 166 | 5.01
5 | CN(CCCCCNC(=NCCSCc1csc(NC(=N)N)n1)NC#N)CCC(c1ccc(Cl)cc1)c1ccccn1 (stereo not shown) [Example 18, N-[5-[N-[3-(4-chlorophenyl)-3-(2-pyridyl)propyl]-N-methylamino]pentyl]-N'-cyano-N"-[2-[[(2-guanidino-4-thiazolyl)methyl]thio]ethyl]guanidine] | 126 | 3.72
6 | CN(CCCCCCCNC(=NCCSCc1csc(NC(=N)N)n1)NC#N)CCC(c1ccc(Cl)cc1)c1ccccn1 (stereo not shown) [Example 20, N-[7-[N-[3-(4-chlorophenyl)-3-(2-pyridyl)propyl]-N-methylamino]heptyl]-N'-cyano-N"-[2-[[(2-guanidino-4-thiazolyl)methyl]thio]ethyl]guanidine] | 30.9 | 4.17
7 | CN(CCCCCCCNC(=C[N+](=O)[O-])NCCSCc1csc(NC(=N)N)n1)CCC(c1ccc(Cl)cc1)c1ccccn1 (stereo not shown) [Example 23, N-[7-[N-[3-(4-chlorophenyl)-3-(2-pyridyl)propyl]-N-methylamino]heptyl]-N'-[2-[[(2-guanidino-4-thiazolyl)methyl]thio]ethyl]-2-nitro-1,1-ethenediamine] | 12.6 | 5.01
8 | CN(CCCNC(=O)NCCCOc1cccc(CN2CCCCC2)c1)CCC(c1ccc(F)cc1)c1ccccn1 (stereo not shown) [Example 30, N-[3-[N-[3-(4-fluorophenyl)-3-(2-pyridyl)propyl]-N-methylamino]propyl]-N'-[3-[3-(piperidinomethyl)phenoxy]propyl]urea] | 209 | 6.17
9 | CN(CCCCCCCCNC(=O)NCCSCc1csc(NC(=N)N)n1)CCC(c1ccc(Cl)cc1)c1ccccn1 (stereo not shown) [Example 35, N-[8-[N-[3-(4-chlorophenyl)-3-(2-pyridyl)propyl]-N-methylamino]octyl]-N'-[2-[[(2-guanidino-4-thiazolyl)methyl]thio]ethyl]urea] | 39.8 | 13.8
10 | CN(CCCCCCCNC(=O)NCCSCc1csc(NC(=N)N)n1)CCC(c1ccc(Cl)cc1)c1ccccn1 (stereo not shown) [Example 36, N-[7-[N-[3-(4-chlorophenyl)-3-(2-pyridyl)propyl]-N-methylamino]heptyl]-N'-[2-[[(2-guanidino-4-thiazolyl)methyl]thio]ethyl]urea] | 26.9 | 5.37

The remaining lines, values ahead:

Row | Kb (histamine H2 -receptors) [nM] | Kb (histamine H1 -receptors) [nM] | SMILES
11 | 123 | 7.41 | CN(CCCCCCNC(=O)NCCSCc1csc(NC(=N)N)n1)CCC(c1ccc(Cl)cc1)c1ccccn1 (stereo not shown) [Example 37, N-[6-[N-[3-(4-chlorophenyl)-3-(2-pyridyl)propyl]-N-methylamino]hexyl]-N'-[2-[[(2-guanidino-4-thiazolyl)methyl]thio]ethyl]urea]
12 | 60.3 | 20 | CN(CCCCCCCNC(=S)NCCSCc1csc(NC(=N)N)n1)CCC(c1ccc(Cl)cc1)c1ccccn1 (stereo not shown) [Example 48, N-[7-[N-[3-(4-chlorophenyl)-3-(2-pyridyl)propyl]-N-methylamino]heptyl]-N'-[2-[[(2-guanidino-4-thiazolyl)methyl]thio]ethyl]thiourea]
13 | 6460 | 7.08 | Cc1[nH]cnc1CSCCNC(=O)NCCCN(C)CCC(c1ccc(Cl)cc1)c1ccccn1 (stereo not shown) [Example 50, N-[3-[N-[3-(4-chlorophenyl)-3-(2-pyridyl)propyl]-N-methylamino]propyl]-N'-[2-[[(5-methylimidazol-4-yl)methyl]thio]ethyl]urea]
14 | 372 | 7.24 | COc1ccc(CN(CCN(C)CCCCCCNC(=NCCCOc2cccc(CN3CCCCC3)c2)NC#N)c2ccccn2)cc1 [Example 55, N-cyano-N'-[6-[N-[2-[N-(4-methoxybenzyl)-N-(2-pyridyl)amino]ethyl]-N-methylamino]hexyl]-N"-[3-[3-(piperidinomethyl)phenoxy]propyl]guanidine]
15 | 389 | 8.71 | CN(CCCCCCNC(=NCCCOc1cccc(CN2CCCCC2)c1)NC#N)CCN(Cc1ccc(F)cc1)c1ccccn1 [Example 60, N-cyano-N'-[6-[N-[2-[N-(4-fluorobenzyl)-N-(2-pyridyl)amino]ethyl]-N-methylamino]hexyl]-N"-[3-[3-(piperidinomethyl)phenoxy]propyl]guanidine]
16 | 182 | 11.2 | COc1ccc(CN(CCN(C)CCCCCCNC(=O)NCCCOc2cccc(CN3CCCCC3)c2)c2ccccn2)cc1 [Example 66, N-[6-[N-[2-[N-(4-methoxybenzyl)-N-(2-pyridyl)amino]ethyl]-N-methylamino]hexyl]-N'-[3-[3-(piperidinomethyl)phenoxy]propyl]urea]
17 | 135 | 9.55 | CN(CCCCCNC(=O)NCCCOc1cccc(CN2CCCCC2)c1)CCN(Cc1ccc(F)cc1)c1ccccn1 [Example 70, N-[5-[N-[2-[N-(4-fluorobenzyl)-N-(2-pyridyl)amino]ethyl]-N-methylamino]-pentyl]-N'-[3-[3-(piperidinomethyl)phenoxy]propyl]urea]
18 | 44.7 | 17.8 | CN(CCCCCCCNC(=O)NCCCOc1cccc(CN2CCCCC2)c1)CCN(Cc1ccc(F)cc1)c1ccccn1 [Example 72, N-[7-[N-[2-[N-(4-fluorobenzyl)-N-(2-pyridyl)amino]ethyl]-N-methylamino]heptyl]-N'-[3-[3-(piperidinomethyl)phenoxy]propyl]urea]
19 | 123 | 12.3 | COc1ccc(CN(CCN(C)CCCCCCNC(=C[N+](=O)[O-])NCCCOc2cccc(CN3CCCCC3)c2)c2ccccn2)cc1 [Example 75, N-[6-[N-[2-[N-(4-methoxybenzyl)-N-(2-pyridyl)amino]ethyl]-N-methylamino]hexyl]-N'-[3-[3-(piperidinomethyl)phenoxy]propyl]-2-nitro-1,1-ethenediamine]
20 | 245 | 2.45 | COc1ccc(CN(CCN(C)CCCCCCN=C(NC#N)NCCSCc2csc(NC(=N)N)n2)c2ccccn2)cc1 [Example 79, N-cyano-N'-[2-[[(2-guanidino-4-thiazolyl)methyl]thio]ethyl]-N"-[6-[N-[2-[N-(4-methoxybenzyl)-N-(2-pyridyl)amino]ethyl]-N-methylamino]hexyl]-guanidine]
